According to patent US20260138990A1, “TRICYCLIC FUSED IMIDAZOLE COMPOUNDS AS CD38 MODULATORS AND USES THEREOF” (AEOVIAN PHARMACEUTICALS, INC., priority 2023, published 2026):

Columns and labels:
[1] = target: T1, mouse CD38 (Mus musculus, UniProt P56528); test: NAD+ cyclase activity assay with mouse recombinant CD38 protein (ε-NAD fluorescence); format: biochemical; conditions: 0.6 nM mouse CD38, substrate ε-NAD, 30 min preincubation, fluorescence 300/410 nm
T1 construct: purchased Bio-Techne GmbH 4947-AC
T1 sequence (P56528 1-304): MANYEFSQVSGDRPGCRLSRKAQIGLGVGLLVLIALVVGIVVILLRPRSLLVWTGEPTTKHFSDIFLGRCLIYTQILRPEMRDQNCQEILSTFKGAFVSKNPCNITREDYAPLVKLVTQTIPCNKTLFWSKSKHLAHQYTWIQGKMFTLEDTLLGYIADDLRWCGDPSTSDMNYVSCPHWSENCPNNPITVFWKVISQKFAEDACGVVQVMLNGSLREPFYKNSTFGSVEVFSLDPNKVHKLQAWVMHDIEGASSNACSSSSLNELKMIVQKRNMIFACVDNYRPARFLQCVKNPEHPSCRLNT
Experimental: (§1) Example 4: NAD^+ Cydase Activity Assay with Human or Mouse Recombinant CD38 Protein
(§2) The following assay was used to determine the ability of compounds of the invention to inhibit the hydrolysis of NAD^+ by the human or mouse enzyme, CD38.
(§3) Reaction buffer: 40 mM HEPES/NaOH pH 7.5, 250 mM sucrose, 0.01% Tween
(§4) Final concentrations: 0.6 nM mouse CD38 (4947-AC, Bio-Techne GmbH) 1.9 nM human CD38 (AVI2404, Bio-Techne GmbH)
(§5) Substrate: […] Nicotinamide 1,N6-ethenoadenine dinucleotide (&-NAD)
(§6) Read-out: Fluorescence intensity (extinction 300 nm/emission 410 nm)
(§7) Required reaction buffer, required CD38 concentration in reaction buffer and required e-NAD concentration in reaction buffer were prepared. Thereafter, 8 μL of CD38 in reaction buffer was added to High Control and compound concentration wells in 384 well plate (Corning #4514, 384 well, nonbinding surface, low volume, round bottom) and 8 μL of reaction buffer to Low Control. Compound dilutions were transferred via pintool technology that transfers 42.5 nL compound dilutions (12-point dose-response with factor three dilutions in 100% DMSO) well-to-well. Plate was subsequently shaken for 15 s at 1450 rpm and sealed for incubation for 30 min at room temperature. Thereafter, 2 μL of e-NAD in reaction buffer were added with Integra Voyager. After shaking for 15 s at 1450 rpm, plate was sealed, and assay signal were measured continuously with PHERAstar® fluorescence intensity module (extinction 300 nm/emission 410 nm).
(§8) Dose-response curves were constructed using twelve-pointfactor three dilutions in triplicates per plate. High control (full enzyme activity) was set to assay signal of CD38 and e-NAD in presence of vehicle (DMSO) and Low control (full enzyme inhibition) was set to assay signal of e-NAD and vehicle (DMSO) in absence of CD38. For data analysis, fluorescent signal of traces corresponding to each compound concentration and High and Low control were monitored over time. Each run, High Control (full enzyme activity) was fitted to Linear equation via GraphPad Prism to determine CD38 activity from the slope and determine the time interval of linear phase of reaction to account for minor fluctuations. Thereafter, slopes of all compound concentrations were determined via fitting to same linear equation (GraphPad Prism) over the same time interval as determined for High control. […] Unless otherwise stated, fitting of curves were fixed to 100%-inhibition and unlocked for 0%-inhibition.

[2] = target: T2, human CD38 (Homo sapiens, UniProt P28907); test: NAD+ cyclase activity assay with human recombinant CD38 protein (ε-NAD fluorescence); format: biochemical; conditions: 1.9 nM human CD38, substrate ε-NAD, 30 min preincubation, fluorescence 300/410 nm
T2 construct: purchased Bio-Techne GmbH AVI2404
T2 sequence (P28907 1-300): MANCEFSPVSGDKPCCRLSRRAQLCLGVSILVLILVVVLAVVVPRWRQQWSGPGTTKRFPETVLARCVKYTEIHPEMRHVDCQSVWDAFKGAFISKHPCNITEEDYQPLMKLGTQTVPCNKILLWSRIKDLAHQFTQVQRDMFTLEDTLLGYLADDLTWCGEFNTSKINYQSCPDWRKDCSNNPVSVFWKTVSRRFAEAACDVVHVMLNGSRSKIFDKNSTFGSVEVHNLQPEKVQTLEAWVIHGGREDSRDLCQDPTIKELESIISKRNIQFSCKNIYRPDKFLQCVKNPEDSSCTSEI
Experimental: as §1, §2, §3, §4, §5, §6, §7, §8

Structure (SMILES) | IC50 [1] [nM] | IC50 [2] [nM]
O=C(Nc1ccc2nc[nH]c2c1)c1ccc2c(c1)-c1cncn1CCO2 [Compound 34A, N-(1H-Benzo [d]imidazol-6-yl)-5,6-dihydrobenzo[f]imidazo[1,5-d][1,4]oxazepine-10-carboxamide] | 1 to 10 | < 30
O=C(N[C@H]1CC[C@H](NCC(F)(F)F)CC1)c1ccc2c(c1)-c1cncn1CCO2 [Compound 62A, N-((1r,4r)-4-((2,2,2-Trifluoroethyl)amino)cyclohexyl)-5,6-dihydrobenzo[f]imidazo[1,5-d][1,4]oxazepine-10-carboxamide] | 1 to 10 | < 30
O=C(N[C@H]1CC[C@H](O[C@H]2C[C@H](F)C2)CC1)c1ccc2c(c1)-c1cncn1CCO2 [Compound 148A, N-((1r,4r)-4-((1r,3r)-3-Fluorocyclobutoxy)cyclohexyl)-5,6-dihydrobenzo[f]imidazo[1,5-d][1,4]oxazepine-10-carboxamide] | 1 to 10 | < 30
O=C(NC1CC2(COC2)C1)c1cc(F)c2c(c1)-c1cncn1CCO2 [Compound 160A, 8-Fluoro-N-(2-oxaspiro[3.3]heptan-6-yl)-5,6-dihydrobenzo[f]imidazo[1,5-d][1,4]oxazepine-10-carboxamide] | 1 to 10 | 30 to 100
O=C(N[C@H]1CC[C@@H](OCC(F)(F)F)CC1)c1cc2c(c(F)c1F)OCCn1cncc1-2 [Compound 188A, 8,9-Difluoro-N-((1s,4s)-4-(2,2,2-trifluoroethoxy)cyclohexyl)-5,6-dihydrobenzo[f]imidazo[1,5-d][1,4]oxazepine-10-carboxamide] | – | 100 to 1000
O=C(N[C@H]1CC[C@H](OCC(F)(F)F)CC1)c1cc(F)c2c(c1)-c1cncn1CCO2 [Compound 155A, 8-Fluoro-N-((1r,4r)-4-(2,2,2-trifluoroethoxy)cyclohexyl)-5,6-dihydrobenzo[f]imidazo[1,5-d][1,4]oxazepine-10-carboxamide] | < 1 | < 30
O=C(Nc1cnc(N2CC(C(F)F)C2)nc1)c1ccc2c(c1)-c1cncn1CCO2 [Compound 124A, N-(2-(3-(Difluoromethyl)azetidin-1-yl)pyrimidin-5-yl)-5,6-dihydrobenzo[f]imidazo[1,5-d][1,4]oxazepine-10-carboxamide] | 10 to 100 | < 30
O=C(N[C@H]1CC[C@@H](OCC(F)(F)F)CC1)c1ccc2c(c1)-c1cncn1CCO2 [Compound 123A, N-((1s,4s)-4-(2,2,2-Trifluoroethoxy)cyclohexyl)-5,6-dihydrobenzo[f]imidazo[1,5-d][1,4]oxazepine-10-carboxamide] | 10 to 100 | 100 to 1000
COc1nc2cc(NC(=O)c3ccc4c(c3)-c3cncn3CCO4)ccc2s1 [Compound 44A, N-(2-Methoxybenzo[d]thiazol-5-yl)-5,6-dihydrobenzo[f]imidazo[1,5-d][1,4]oxazepine-10-carboxamide] | – | < 30
CC1CC(CC(F)(F)F)CCC1NC(=O)c1cc(F)c2c(c1)-c1cncn1CCO2 (stereo not drawn) [Compound 185A, 8-Fluoro-N-(2-methyl-4-(2,2,2-trifluoroethyl)cyclohexyl)-5,6-dihydrobenzo[f]imidazo[1,5-d][1,4]oxazepine-10-carboxamide] | – | < 30
C[C@@H]1C[C@H](CC(F)(F)F)CC[C@@H]1NC(=O)c1cc(F)c2c(c1)-c1cncn1CCO2 (relative stereo) [Compound 186A, 8-Fluoro-N-(cis-2-methyl-cis-4-(2,2,2-trifluoroethyl)cyclohexyl)-5,6-dihydrobenzo[f]imidazo[1,5-d][1,4]oxazepine-10-carboxamide] | – | 30 to 100
O=C(N[C@H]1CC[C@H](OCC(F)(F)F)CC1)c1cc2c(c(F)c1F)OCCn1cncc1-2 [Compound 187A, 8,9-Difluoro-N-((1r,4r)-4-(2,2,2-trifluoroethoxy)cyclohexyl)-5,6-dihydrobenzo[f]imidazo[1,5-d][1,4]oxazepine-10-carboxamide] | – | < 30
Cc1c(C(=O)NC2CCC(OCC(F)(F)F)CC2)cc2c(c1C)OCCn1cncc1-2 (stereo not drawn) [Compound 189A, 8,9-Dimethyl-N-(4-(2,2,2-trifluoroethoxy)cyclohexyl)-5,6-dihydrobenzo[f]imidazo[1,5-d][1,4]oxazepine-10-carboxamide] | – | 100 to 1000
O=C(NC1CCCC(C(F)(F)F)C1)c1cc(Cl)c2c(c1)-c1cncn1CCO2 (stereo not drawn) [Compound 181A, 8-Chloro-N-(3-(trifluoromethyl)cyclohexyl)-5,6-dihydrobenzo[f]imidazo[1,5-d][1,4]oxazepine-10-carboxamide] | – | < 30
CC1CC(CC(F)(F)F)CCC1NC(=O)c1cc(Cl)c2c(c1)-c1cncn1CCO2 (stereo not drawn) [Compound 183A, 8-Chloro-N-(2-methyl-4-(2,2,2-trifluoroethyl)cyclohexyl)-5,6-dihydrobenzo[f]imidazo[1,5-d][1,4]oxazepine-10-carboxamide] | – | < 30
COCCO[C@H]1CC[C@H](NC(=O)c2cc3c(c(C)c2C)OCCn2cncc2-3)CC1 [Compound 179A, N-((1r,4r)-4-(2-Methoxyethoxy)cyclohexyl)-8,9-dimethyl-5,6-dihydrobenzo[f]imidazo[1,5-d][1,4]oxazepine-10-carboxamide] | – | 100 to 1000
COCCO[C@H]1CC[C@H](NC(=O)c2cc3c(c(Cl)c2C)OCCn2cncc2-3)CC1 [Compound 191A, 8-Chloro-N-((1r,4r)-4-(2-methoxyethoxy)cyclohexyl)-9-methyl-5,6-dihydrobenzo[f]imidazo[1,5-d][1,4]oxazepine-10-carboxamide] | – | 30 to 100
Cc1c(C(=O)NC2CCC(F)(F)CC2)cc2c(c1C)OCCn1cncc1-2 [Compound 180A, N-(4,4-Difluorocyclohexyl)-8,9-dimethyl-5,6-dihydrobenzo[f]imidazo[1,5-d][1,4]oxazepine-10-carboxamide] | – | 100 to 1000
O=C(N[C@@H]1CCCOC1)c1ccc2c(n1)-n1cncc1CCO2 [Compound 42A, (R)—N-(tetrahydro-2H-pyran-3-yl)-6,7-dihydroimidazo[1,5-d]pyrido[3,2-b][1,4]oxazepine-2-carboxamide] | 10 to 100 | –
COCCOc1nc2cc(NC(=O)c3ccc4c(c3)-c3cncn3CCO4)ccc2s1 [Compound 45A, N-(2-(2-Methoxyethoxy)benzo[d]thiazol-5-yl)-5,6-dihydrobenzo[f]imidazo[1,5-d][1,4]oxazepine-10-carboxamide] | – | < 30
C[C@@H]1C[C@H](CC(F)(F)F)CC[C@@H]1NC(=O)c1cc(Cl)c2c(c1)-c1cncn1CCO2 (relative stereo) [Compound 184A, 8-Chloro-N-(cis-2-methyl-cis-4-(2,2,2-trifluoroethyl)cyclohexyl)-5,6-dihydrobenzo[f]imidazo[1,5-d][1,4]oxazepine-10-carboxamide] | – | 100 to 1000
O=C(N[C@@H]1CCCOC1)c1ccc2c(n1)-n1cnc(c1)CCO2 [Compound 43A, (Z)—N—((R)-Tetrahydro-2H-pyran-3-yl)-5,6-dihydro-1,4-(metheno)pyrido[3,2-b][1,4,6]oxadiazonine-10-carboxamide] | – | > 1000
Cc1cc(CC(F)(F)F)ccc1NC(=O)c1cc(Cl)c2c(c1)-c1cncn1CCO2 [Compound 182A, 8-Chloro-N-(2-methyl-4-(2,2,2-trifluoroethyl)phenyl)-5,6-dihydrobenzo[f]imidazo[1,5-d][1,4]oxazepine-10-carboxamide] | – | 30 to 100
